Data from article PMC7070898 (Clinical and Translational Science, 2019).

Experiment: Safety and tolerability
Conditions: for Subjects with TEAEs: all evobrutinib doses pooled
[1] = one subject, 200 mg single dose, day 11
[2] = part 1 single dosing, pooled evobrutinib
[3] = part 2 multiple dosing, pooled evobrutinib

C=CC(=O)N1CCC(CNc2ncnc(N)c2-c2ccc(Oc3ccccc3)cc2)CC1 [evobrutinib]
TEAE: Abdominal pain (SAD 100 mg, n = 6): 0 (0.0) n (%), (number of events)
TEAE: Amylase increased (SAD 100 mg, n = 6): 0 (0.0) n (%), (number of events)
TEAE: Application site pruritus (due to ECG stickers) (SAD 100 mg, n = 6): 0 (0.0) n (%), (number of events)
TEAE: Back pain (SAD 100 mg, n = 6): 0 (0.0) n (%), (number of events)
TEAE: Contact dermatitis (SAD 100 mg, n = 6): 0 (0.0) n (%), (number of events)
TEAE: Dizziness (SAD 100 mg, n = 6): 0 (0.0) n (%), (number of events)
TEAE: Dry eye (SAD 100 mg, n = 6): 0 (0.0) n (%), (number of events)
TEAE: Dry mouth (SAD 100 mg, n = 6): 0 (0.0) n (%), (number of events)
TEAE: Dyspepsia (SAD 100 mg, n = 6): 0 (0.0) n (%), (number of events)
TEAE: Excoriation (SAD 100 mg, n = 6): 0 (0.0) n (%), (number of events)
TEAE: Headache (SAD 100 mg, n = 6): 0 (0.0) n (%), (number of events)
TEAE: Lipase increased (SAD 100 mg, n = 6): 0 (0.0) n (%), (number of events)
TEAE: Multiple injuries (SAD 100 mg, n = 6): 0 (0.0) n (%), (number of events)
TEAE: Nasal congestion (SAD 100 mg, n = 6): 1 (16.7) (1) n (%), (number of events)
TEAE: Noncardiac chest pain (SAD 100 mg, n = 6): 0 (0.0) n (%), (number of events)
TEAE: Odynophagia (SAD 100 mg, n = 6): 0 (0.0) n (%), (number of events)
TEAE: Overall total (SAD 100 mg, n = 6): 1 (16.7) (1) n (%), (number of events)
TEAE: URTI (SAD 100 mg, n = 6): 0 (0.0) n (%), (number of events)
TEAE: Abdominal pain (SAD 200 mg, n = 6): 0 (0.0) n (%), (number of events)
TEAE: Amylase increased (SAD 200 mg, n = 6): 1 (16.7) (1) n (%), (number of events)
TEAE: Application site pruritus (due to ECG stickers) (SAD 200 mg, n = 6): 0 (0.0) n (%), (number of events)
TEAE: Back pain (SAD 200 mg, n = 6): 0 (0.0) n (%), (number of events)
TEAE: Contact dermatitis (SAD 200 mg, n = 6): 0 (0.0) n (%), (number of events)
TEAE: Dizziness (SAD 200 mg, n = 6): 1 (16.7) (1) n (%), (number of events)
TEAE: Dry eye (SAD 200 mg, n = 6): 0 (0.0) n (%), (number of events)
TEAE: Dry mouth (SAD 200 mg, n = 6): 0 (0.0) n (%), (number of events)
TEAE: Dyspepsia (SAD 200 mg, n = 6): 0 (0.0) n (%), (number of events)
TEAE: Excoriation (SAD 200 mg, n = 6): 1 (16.7) (1) n (%), (number of events)
TEAE: Headache (SAD 200 mg, n = 6): 0 (0.0) n (%), (number of events)
TEAE: Lipase increased (SAD 200 mg, n = 6): 1 (16.7) (1) n (%), (number of events)
TEAE: Multiple injuries (SAD 200 mg, n = 6): 0 (0.0) n (%), (number of events)
TEAE: Nasal congestion (SAD 200 mg, n = 6): 0 (0.0) n (%), (number of events)
TEAE: Noncardiac chest pain (SAD 200 mg, n = 6): 0 (0.0) n (%), (number of events)
TEAE: Odynophagia (SAD 200 mg, n = 6): 0 (0.0) n (%), (number of events)
TEAE: Overall total (SAD 200 mg, n = 6): 2 (33.3) (4) n (%), (number of events)
TEAE: URTI (SAD 200 mg, n = 6): 0 (0.0) n (%), (number of events)
TEAE: Abdominal pain (SAD 350 mg, n = 6): 0 (0.0) n (%), (number of events)
TEAE: Amylase increased (SAD 350 mg, n = 6): 0 (0.0) n (%), (number of events)
TEAE: Application site pruritus (due to ECG stickers) (SAD 350 mg, n = 6): 0 (0.0) n (%), (number of events)
TEAE: Back pain (SAD 350 mg, n = 6): 0 (0.0) n (%), (number of events)
TEAE: Contact dermatitis (SAD 350 mg, n = 6): 0 (0.0) n (%), (number of events)
TEAE: Dizziness (SAD 350 mg, n = 6): 0 (0.0) n (%), (number of events)
TEAE: Dry eye (SAD 350 mg, n = 6): 0 (0.0) n (%), (number of events)
TEAE: Dry mouth (SAD 350 mg, n = 6): 0 (0.0) n (%), (number of events)
TEAE: Dyspepsia (SAD 350 mg, n = 6): 0 (0.0) n (%), (number of events)
TEAE: Excoriation (SAD 350 mg, n = 6): 0 (0.0) n (%), (number of events)
TEAE: Headache (SAD 350 mg, n = 6): 0 (0.0) n (%), (number of events)
TEAE: Lipase increased (SAD 350 mg, n = 6): 0 (0.0) n (%), (number of events)
TEAE: Multiple injuries (SAD 350 mg, n = 6): 1 (16.7) (1) n (%), (number of events)
TEAE: Nasal congestion (SAD 350 mg, n = 6): 0 (0.0) n (%), (number of events)
TEAE: Noncardiac chest pain (SAD 350 mg, n = 6): 0 (0.0) n (%), (number of events)
TEAE: Odynophagia (SAD 350 mg, n = 6): 0 (0.0) n (%), (number of events)
TEAE: Overall total (SAD 350 mg, n = 6): 1 (16.7) (1) n (%), (number of events)
TEAE: URTI (SAD 350 mg, n = 6): 0 (0.0) n (%), (number of events)
TEAE: Abdominal pain (SAD 500 mg, n = 6): 0 (0.0) n (%), (number of events)
TEAE: Amylase increased (SAD 500 mg, n = 6): 0 (0.0) n (%), (number of events)
TEAE: Application site pruritus (due to ECG stickers) (SAD 500 mg, n = 6): 0 (0.0) n (%), (number of events)
TEAE: Back pain (SAD 500 mg, n = 6): 0 (0.0) n (%), (number of events)
TEAE: Contact dermatitis (SAD 500 mg, n = 6): 0 (0.0) n (%), (number of events)
TEAE: Dizziness (SAD 500 mg, n = 6): 0 (0.0) n (%), (number of events)
TEAE: Dry eye (SAD 500 mg, n = 6): 1 (16.7) (1) n (%), (number of events)
TEAE: Dry mouth (SAD 500 mg, n = 6): 0 (0.0) n (%), (number of events)
TEAE: Dyspepsia (SAD 500 mg, n = 6): 0 (0.0) n (%), (number of events)
TEAE: Excoriation (SAD 500 mg, n = 6): 0 (0.0) n (%), (number of events)
TEAE: Headache (SAD 500 mg, n = 6): 1 (16.7) (1) n (%), (number of events)
TEAE: Lipase increased (SAD 500 mg, n = 6): 0 (0.0) n (%), (number of events)
TEAE: Multiple injuries (SAD 500 mg, n = 6): 0 (0.0) n (%), (number of events)
TEAE: Nasal congestion (SAD 500 mg, n = 6): 0 (0.0) n (%), (number of events)
TEAE: Noncardiac chest pain (SAD 500 mg, n = 6): 0 (0.0) n (%), (number of events)
TEAE: Odynophagia (SAD 500 mg, n = 6): 1 (16.7) (1) n (%), (number of events)
TEAE: Overall total (SAD 500 mg, n = 6): 2 (33.3) (3) n (%), (number of events)
TEAE: URTI (SAD 500 mg, n = 6): 0 (0.0) n (%), (number of events)
TEAE: Abdominal pain (SAD pooled active, n = 36): 0 (0.0) n (%), (number of events)
TEAE: Amylase increased (SAD pooled active, n = 36): 1 (2.8) (1) n (%), (number of events)
TEAE: Application site pruritus (due to ECG stickers) (SAD pooled active, n = 36): 0 (0.0) n (%), (number of events)
TEAE: Back pain (SAD pooled active, n = 36): 1 (2.8) (1) n (%), (number of events)
TEAE: Contact dermatitis (SAD pooled active, n = 36): 2 (5.6) (2) n (%), (number of events)
TEAE: Dizziness (SAD pooled active, n = 36): 1 (2.8) (1) n (%), (number of events)
TEAE: Dry eye (SAD pooled active, n = 36): 1 (2.8) (1) n (%), (number of events)
TEAE: Dry mouth (SAD pooled active, n = 36): 0 (0.0) n (%), (number of events)
TEAE: Dyspepsia (SAD pooled active, n = 36): 1 (2.8) (1) n (%), (number of events)
TEAE: Excoriation (SAD pooled active, n = 36): 1 (2.8) (1) n (%), (number of events)
TEAE: Headache (SAD pooled active, n = 36): 2 (5.6) (3) n (%), (number of events)
TEAE: Lipase increased (SAD pooled active, n = 36): 1 (2.8) (1) n (%), (number of events)
TEAE: Multiple injuries (SAD pooled active, n = 36): 1 (2.8) (1) n (%), (number of events)
TEAE: Nasal congestion (SAD pooled active, n = 36): 1 (2.8) (1) n (%), (number of events)
TEAE: Noncardiac chest pain (SAD pooled active, n = 36): 0 (0.0) n (%), (number of events)
TEAE: Odynophagia (SAD pooled active, n = 36): 1 (2.8) (1) n (%), (number of events)
TEAE: Overall total (SAD pooled active, n = 36): 9 (25.0) (15) n (%), (number of events)
TEAE: URTI (SAD pooled active, n = 36): 0 (0.0) n (%), (number of events)
nontolerated dose (after SAD or MAD administrations): no nontolerated dose could be defined
Subjects with TEAEs (after multiple dosing): 48.1%
Subjects with TEAEs (after single dosing): 25%
toxicity grade of increased amylase [1]: 3 grade
toxicity grade of increased lipase (dose‐limiting TEAE) [1]: 4 grade
Subjects with contact dermatitis at locations of ECG pads [2]: 5.6%
Subjects with headache [2]: 5.6%
severity of TEAEs (part 2 multiple dosing): All TEAEs reported were mild and no dose‐limiting adverse events were reported
Subjects with fatigue [3]: 7.4%
Subjects with gastrointestinal TEAEs [3]: 18.5%
Subjects with headache [3]: 11.1%
Subjects with skin irritation due to ECG pads [3]: 7.4%
Subjects with upper respiratory tract infection [3]: 7.4%
deaths or treatment-related SAEs (parts 1 and 2): no deaths or SAEs related to treatment
